# Experiments:
# microglia = assay: Microglia reaction immunostaining (CD45); type: in vivo; conditions: AD mice
# Method: (§1) APPswe/PS1DE9 (AD) transgenic mice were purchased from Jackson Laboratory, USA (No. 005864), raised in the SPF grade animal house of The Third Affiliated Hospital of The Third Military Medical University. All the processes and correlated experiments applied to the mice were approved and filed with the Animal Ethics Committee of the Third Military Medical University. […] Alternatively, the daily dose for the prophylactic group may be 6.4 mg/kg, and the daily dose for the treatment group may be 12.8 mg/kg. Administration from 3-month old to 9-month old is the prophylactic test, and administration from 9-month old to 12-month old is the therapeutic test After reaching a stated time, the mice in each group received behavioral tests according to the method in the follows. Three mice in each group were taken for Golgi staining. The remaining mice were overly anaesthetized to receive brain anatomy. One side of the cerebral hemisphere was frozen and then for a biochemical analysis, and the other side of the cerebral hemisphere was fixed with 4% paraform for a histological analysis.
# (§2) Immunohistochemistry in the method of bleach section was carried out according to the previous steps. The primary antibodies were rabbit-anti-mouse CD45 antibody (for labelling microglias), rabbit-anti-mouse GFAP (for labelling astrocytes) and rabbit-anti-mouse pSer396-Tau antibody, respectively. […]
# BACE = assay: In vitro test of BACE expression
# [1] = test system: APPswe/PS1DE9 (AD) transgenic mice; assay: Y-maze (spontaneous alternation and novel arm probe test); type: in vivo; conditions: AD mice vs control group
# Method: APPswe/PS1DE9 (AD) transgenic mice were purchased from Jackson Laboratory, USA (No. 005864), raised in the SPF grade animal house of The Third Affiliated Hospital of The Third Military Medical University. All the processes and correlated experiments applied to the mice were approved and filed with the Animal Ethics Committee of the Third Military Medical University. […] Alternatively, the daily dose for the prophylactic group may be 6.4 mg/kg, and the daily dose for the treatment group may be 12.8 mg/kg. Administration from 3-month old to 9-month old is the prophylactic test, and administration from 9-month old to 12-month old is the therapeutic test After reaching a stated time, the mice in each group received behavioral tests according to the method in the follows. Three mice in each group were taken for Golgi staining. The remaining mice were overly anaesthetized to receive brain anatomy. One side of the cerebral hemisphere was frozen and then for a biochemical analysis, and the other side of the cerebral hemisphere was fixed with 4% paraform for a histological analysis. All the mice in each group received behavioral tests, including a water maze, Y-maze and open field test. Water maze test includes four days of platform test and the subsequent probe test. The entire process was recorded by video, and analyzed with an image analysis software (ANY-maze, Stoelting). In the platform test, the escape path length and escape latency were measured and calculated. In the probe test, the time in each quadrant and the time across platform were measured. The spontaneous alternation test and novel arm probe test were carried out in the Y-maze. In the spontaneous alternation test, the mouse was free running In the maze for 5 min. Alternation is defined as entering the three arms connected with each other continuously. […] In the open field test, the mouse was put in the center of an open field for 3 min, and its path was recorded by a tracking system (Limelight, ActiMetrics). At the same time, the numbers of rearing, grooming, defecation and urination of the mouse were recorded.
# astrocyte = assay: Astrocyte reaction immunostaining (GFAP); type: in vivo; conditions: AD mice
# Method: as §1, §2
# Aβ42 = Aβ42 (Homo sapiens, UniProt P05067); assay: Western blot determination of aggregation-inhibitive effect on Aβ; type: biochemical; conditions: read-out: inhibition of Aβ from forming aggregates (Western blot)
# Sequence of Aβ42 (P05067 672-713 limits assumed): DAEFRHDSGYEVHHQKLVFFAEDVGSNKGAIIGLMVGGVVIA
# β-secretase (BACE1) = assay: Western blot of BACE1 expression in brain; type: in vivo; conditions: AD mice brain
# Method: (§3) APPswe/PS1DE9 (AD) transgenic mice were purchased from Jackson Laboratory, USA (No. 005864), raised in the SPF grade animal house of The Third Affiliated Hospital of The Third Military Medical University. All the processes and correlated experiments applied to the mice were approved and filed with the Animal Ethics Committee of the Third Military Medical University. […] Alternatively, the daily dose for the prophylactic group may be 6.4 mg/kg, and the daily dose for the treatment group may be 12.8 mg/kg. […]
# (§4) The enzymes related with Aβ formation and degradation their molecule levels, the levels of hyperphosphprylated Tau proteins, and the levels of synaptic plasticity correlated proteins were all detected with Western blot. […] The blotting was detected with the following antibodies: APP C terminal antibody (171610, Millipore), BACE1 antibody (Millipore), Aβ antibody (6E10, Abcam), Nepriiysin antibody (Millipore), RAGE antibody (Millipore), LRP antibody (5A6, Calbiochem), IDE antibody (epitomics), phosphorylated Tau protein antibody, including pS396 (Signalway), pT231 (Signalway), pS199 (epitomics), pS262 (Abcam), SNAP25 antibody (Millipore), Synaptophysin antibody (Millipore), Synapsin I antibody (Millipore), VAMP1 antibody (Millipore), PSD95 antibody (Millipore), F-actin antibody (Actin) (Sigma-Aldrich). […]
# Gsk-3β = Gsk-3β (Homo sapiens, UniProt P49841); assay: In vitro test of Gsk-3β activities
# Sequence of Gsk-3β (P49841 whole entry, species assumed): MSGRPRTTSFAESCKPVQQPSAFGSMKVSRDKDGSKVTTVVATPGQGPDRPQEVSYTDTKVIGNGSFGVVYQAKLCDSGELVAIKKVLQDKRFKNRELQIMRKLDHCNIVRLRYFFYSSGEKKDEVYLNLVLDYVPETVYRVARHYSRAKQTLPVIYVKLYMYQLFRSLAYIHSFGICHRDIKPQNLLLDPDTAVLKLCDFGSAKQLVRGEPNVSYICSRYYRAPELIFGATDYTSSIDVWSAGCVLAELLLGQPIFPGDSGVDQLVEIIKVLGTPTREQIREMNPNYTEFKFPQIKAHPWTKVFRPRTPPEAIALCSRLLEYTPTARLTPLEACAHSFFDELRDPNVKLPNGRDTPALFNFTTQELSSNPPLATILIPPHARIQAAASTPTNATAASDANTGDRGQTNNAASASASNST
# LRP = assay: Western blot of Aβ metabolizing enzymes in brain: LRP; type: in vivo; conditions: AD mice brain
# Method: as §3, §4
# SH-SY5Y cells = assay: MTT cell viability assay, Aβ-treated SH-SY5Y cells; type: cell-based; conditions: 1 μM Aβ oligomers, 24 h, dose-dependent
# Method: The SH-SY5Y cell line was purchased from the Peking Union Hospital Cell Bank, cultured in a humidified incubator under 5% CO2 and 37° C., A MTT cell viability assay was performed according to the instructions in the kit (Sigma). […] The optical density values were determined at a wavelength of 563 nm (Synergy H4, Bio Tek). The neurite growth test was performed according to the method described in the prior documents (see, for example, Wang, Y. J., et al., Effects of proNGF on neuronal viability, neurite growth and amyloid-beta metabolism. Neurotox Res, 2010, 17(3): p. 257-67).
# [2] = prophylactic and therapeutic test
compound,measurement,setting,value
"CC1=NN(c2ccccc2)C(=O)C1 [Edaravone, 3-methyl-1-phenyl-2-pyrazolin-5-one]",microglia reaction level in the brain,microglia; p.o.,"significantly reduced, too"
same,microglia reaction in the brain,microglia; [2],all reduced significantly
same,BACE expression in vitro,BACE,inhibits the BACE expression
same,Y-maze alternation proportion,[1],also significantly increased
same,Y-maze arm entry,[1],significantly higher than in the control group
same,Y-maze proportion of the novel arm entry,[1],significantly increased
same,astrocyte reaction level in the brain,astrocyte; p.o.,"significantly reduced, too"
same,astrocyte reaction in the brain,astrocyte; [2],all reduced significantly
same,inhibition at 3 µM,Aβ42,50%
same,expression of β-secretase (BACE1),β-secretase (BACE1),significant decrease
same,Gsk-3β activities in vitro,Gsk-3β,inhibits the Gsk-3β activities
same,influence on LRP,LRP,no influence
same,cell survival rate,SH-SY5Y cells,cell survival rate increases significantly

# From patent US20170312253A1 (The Third Affiliated Hospital, Third Military Medical …, priority 2014, published 2017)
